{"source": "patent US12115245B2", "about": "(Xiamen University, priority 2019, dated 2024)", "origin": "cited, not measured here", "note": "Where a SMILES comes first, the peptide text is derived from it."}
{"smiles": "NC(=O)CC[C@H](N)C(=O)O", "note": "[Gln, Glutamine]", "values": [{"measurement": "solubility in water / aqueous solutions", "result": "low solubility in aqueous solutions"}]}
{"smiles": "C[C@H](N)C(=O)N[C@@H](CCC(N)=O)C(=O)O", "note": "[Ala-Gln, L-alanyl-L-glutamine] (H-Ala-Gln-OH)", "values": [{"measurement": "solubility in water / aqueous solutions", "result": "very soluble in water"}]}
